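Assay format: 96-well plates, 48-hour exposure. GI50 is the concentration that inhibits growth by half.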 Activity calls are given as the source filed them. No stated cut-off is given here; in the data, active = GI50 up to about 1.1 µM and inactive = higher.
How the values were obtained:
Experiment in all cases: NCI-60 cell line screen, 48 h
[1] = test system: SN12C
[2] = test system: SK-MEL-28
[3] = test system: SF-295
[4] = test system: SW-620
[5] = test system: MCF7
[6] = test system: OVCAR-5
[7] = test system: Malme-3M
[8] = test system: 786-0
[9] = test system: NCI-H522
[10] = test system: NCI-H226
[11] = test system: SK-MEL-5
[12] = test system: A498
[13] = test system: TK-10
[14] = test system: HOP-92
[15] = test system: MDA-N
[16] = test system: IGROV-1
[17] = test system: NCI-H23
[18] = test system: UO-31
[19] = test system: HL-60

In the case of `Cc1ccc(-c2c(C#N)c(-c3ccc(Cl)cc3)c(C#N)c(=O)n2NS(=O)(=O)c2ccc(C)cc2)cc1`, the GI50 [1] was 39.4 µM (inactive), the GI50 [2] was 30.3 µM (inactive) and the GI50 [3] was 24 µM (inactive). For the same compound, the GI50 [4] was 35.8 µM (inactive), the GI50 [5] was 15.2 µM (inactive) and the GI50 [6] was 43.3 µM (inactive). For the same compound, the GI50 [7] was 20.8 µM (inactive), the GI50 [8] was 42.4 µM (inactive) and the GI50 [9] was 23.1 µM (inactive). For the same compound, the GI50 [10] was 39.8 µM (inactive), the GI50 [11] was 23.1 µM (inactive) and the GI50 [12] was 35 µM (inactive). For the same compound, the GI50 [13] was 56.1 µM (inactive), the GI50 [14] was 19.5 µM (inactive) and the GI50 [15] was 43.8 µM (inactive). The GI50 [16] was 29.2 µM (inactive).
With `C=CCCCC1(C)CCNC1=S` (configuration not stated) the GI50 [1] was > 100 µM (inactive), the GI50 [2] was > 100 µM (inactive) and the GI50 [3] was > 100 µM (inactive). For the same compound, the GI50 [4] was > 100 µM (inactive), the GI50 [5] was > 100 µM (inactive) and the GI50 [6] was > 100 µM (inactive). The GI50 [8] was > 100 µM (inactive), the GI50 [17] was > 100 µM (inactive) and the GI50 [18] was > 100 µM (inactive). For the same compound, the GI50 [9] was > 100 µM (inactive), the GI50 [11] was > 100 µM (inactive) and the GI50 [12] was > 100 µM (inactive). The GI50 [13] was > 100 µM (inactive), the GI50 [14] was > 100 µM (inactive) and the GI50 [15] was > 100 µM (inactive). For the same compound, the GI50 [16] was > 100 µM (inactive).
In the case of `NS(=O)(=O)c1ccc(NCc2nc3ccccc3[nH]2)cc1`, the GI50 [1] was > 100 µM (inactive), the GI50 [3] was > 100 µM (inactive) and the GI50 [5] was > 100 µM (inactive). The GI50 [6] was > 100 µM (inactive), the GI50 [7] was > 100 µM (inactive) and the GI50 [8] was > 100 µM (inactive). The GI50 [17] was > 100 µM (inactive), the GI50 [18] was > 100 µM (inactive) and the GI50 [9] was > 100 µM (inactive). The GI50 [10] was > 100 µM (inactive), the GI50 [11] was > 100 µM (inactive) and the GI50 [12] was > 100 µM (inactive). For the same compound, the GI50 [13] was > 100 µM (inactive), the GI50 [14] was > 100 µM (inactive) and the GI50 [15] was > 100 µM (inactive). For the same compound, the GI50 [16] was > 100 µM (inactive).
For `c1ccc([P+](c2ccccc2)(c2ccccc2)C2c3ccccc3-c3ccccc32)cc1`, the GI50 [1] was 2.36 µM (inactive), the GI50 [2] was 3.01 µM (inactive) and the GI50 [3] was 1.75 µM (inactive). For the same compound, the GI50 [4] was 3.08 µM (inactive), the GI50 [5] was 2.25 µM (inactive) and the GI50 [6] was 2.59 µM (inactive). The GI50 [7] was 2.35 µM (inactive), the GI50 [8] was 3.09 µM (inactive) and the GI50 [19] was 1160 nM (inactive). The GI50 [17] was 1.9 µM (inactive), the GI50 [18] was 2.67 µM (inactive) and the GI50 [9] was 2.19 µM (inactive). For the same compound, the GI50 [10] was 1.95 µM (inactive), the GI50 [11] was 1.77 µM (inactive) and the GI50 [12] was 1.75 µM (inactive). The GI50 [13] was 2.53 µM (inactive), the GI50 [15] was 0.895 µM (active) and the GI50 [16] was 1.98 µM (inactive).
With `COc1ccc(C[C@H]2NC(=O)/C=C/C[C@@H]([C@H](C)[C@H]3O[C@@H]3c3ccccc3)OC(=O)[C@H](CC(C)C)OC(=O)[C@H](C)CNC2=O)cc1` the GI50 [1] was 3.94e-05 µM (active), the GI50 [2] was 4.83e-05 µM (active) and the GI50 [3] was 1.07e-05 µM (active). For the same compound, the GI50 [4] was 1.4e-05 µM (active), the GI50 [5] was > 8.95e-05 µM (active) and the GI50 [6] was 3.94e-05 µM (active). The GI50 [7] was 2.19e-05 µM (active), the GI50 [8] was 1.25e-05 µM (active) and the GI50 [19] was 0.0155 nM (active). For the same compound, the GI50 [17] was 2.54e-05 µM (active), the GI50 [18] was 4.71e-05 µM (active) and the GI50 [9] was 1.05e-05 µM (active). For the same compound, the GI50 [10] was > 4.41e-05 µM (active), the GI50 [11] was 7.53e-06 µM (active) and the GI50 [12] was 2.15e-05 µM (active). For the same compound, the GI50 [13] was > 0.0001 µM (active), the GI50 [15] was 5.31e-06 µM (active) and the GI50 [16] was 3.24e-05 µM (active).
`C[C@]12CC[C@H](O)CC1=CC[C@@H]1[C@@H]2CC[C@]2(C)/C(=N/OCCN3CCCC3)CC[C@@H]12` was tested, and the GI50 [1] was 29 µM (inactive), the GI50 [2] was 16.5 µM (inactive) and the GI50 [3] was 19.4 µM (inactive). For the same compound, the GI50 [4] was 16.4 µM (inactive), the GI50 [5] was 19.1 µM (inactive) and the GI50 [6] was 28.2 µM (inactive). The GI50 [7] was 14.1 µM (inactive), the GI50 [8] was 18.1 µM (inactive) and the GI50 [19] was 7740 nM (inactive). For the same compound, the GI50 [17] was 14.1 µM (inactive), the GI50 [18] was 16.7 µM (inactive) and the GI50 [9] was 13 µM (inactive). For the same compound, the GI50 [10] was 14.5 µM (inactive), the GI50 [11] was 14.6 µM (inactive) and the GI50 [12] was 16 µM (inactive). The GI50 [13] was 24.1 µM (inactive), the GI50 [15] was 17.9 µM (inactive) and the GI50 [16] was 16.2 µM (inactive).
